From patent US20260098061A1, “EPHA2-BINDING PENDING PEPTIDE AND COMPOSITION COMPRISING SAME” (PeptiDream Inc., priority 2022, published 2026)
Numbered stars: 1 amine (or outer) side, 2 acyl side, 3 side chain; on linkers, the order of the positions; unused ones are H or OH. Bridge positions count the residues as written; N and C are the ends. Square brackets hold non-standard residues; d marks the D form. Side chains are listed from the residue outwards. Peptide text beside a SMILES is read from it. * marks the point of attachment. X6 = Cn1cc(C[C@H](N[*:1])C(=O)[*:2])c2cccnc21; Piperazinyl(4-CH2COOH) = O=C(O)CN1CCN(*)CC1; Trp(1-Me) = Cn1cc(C[C@H](N)C(=O)O)c2ccccc21; X5 = Cc1cccc(C[C@H](N[*:1])C(=O)[*:2])c1C; NMe3Pal = CN[C@@H](Cc1cccnc1)C(=O)O; NMeF = CN[C@@H](Cc1ccccc1)C(=O)O; Gly(cBu) = N[C@H](C(=O)O)C1CCC1; NMeE = CN[C@@H](CCC(=O)O)C(=O)O; Aad = N[C@@H](CCCC(=O)O)C(=O)O; NMeN = CN[C@@H](CC(N)=O)C(=O)O; CO = O=C([*:1])[*:2]; βAla = NCCC(=O)O

Molecular target: T1, Recombinant Human EphA2 Fc Protein (Homo sapiens, UniProt P29317)
T1 construct: purchased Elabscience
Test: SPR interaction analysis (Biacore T200), kinetics of peptides against EphA2
Format: binding
Details: Recombinant Human EphA2 Fc Protein captured by Human Antibody Capture kit; single-cycle kinetics; 25° C.; HBS-P+ buffer with 1% DMSO
Protocol: Example 14 Interaction Analysis by SPR was Performed Using Biacore (Cytiva)
SPR assay was performed using Biacore T200 (Cytiva).
The HBS-P+ buffer (10 mM HEPES (pH7.4), 150 mM NaCl, 0.05% (v/V) Surfactant P20) containing 1% DMSO was used as running buffer. Recombinant Human EphA2 Fc Protein (Fc tag, Elabscience) was captured by Human Antibody Capture kit (Cytiva). Peptide samples in DMSO were diluted with running buffer, and prepared five serial dilutions. Using these serial dilutions, kinetics of peptides against EphA2 was measured at a flow rate of 30 mL/min at 25° C. The method adopted for sample measurement was a single-cycle kinetics method. The analysis was conducted using the evaluation software 3.0 provided with Biacore T200. Kinetics fitting was done on the difference data obtained by subtracting the baseline data from sample measurement data. KD values were calculated based on the association rate constant (ka) and dissociation rate constant (kd).

Row | Compound | Kd [nM]
1 | CC(=O)NCCCC[C@@H](NC(=O)CCNC(=O)[C@@H]1CSCC(=O)N[C@H](C)C(=O)N(C)[C@@H](Cc2cccnc2)C(=O)N[C@@H](CC(N)=O)C(=O)N[C@@H](CC(C)C)C(=O)N[C@@H](CCCCNC(=O)N2CCN(CC(=O)O)CC2)C(=O)N(C)[C@@H](CCC(=O)O)C(=O)N[C@@H](Cc2cn(C)c3ccccc23)C(=O)N[C@@H](CCCCNC(=O)N2CCN(CC(=O)O)CC2)C(=O)N[C@@H](Cc2cn(C)c3ccccc23)C(=O)N[C@@H]([C@@H](C)O)C(=O)N[C@@H](CCCC(N)=O)C(=O)N1)C(N)=O [PDC_EphA2-00008095, da-Me3Py-N-L-KCOpipzaa-MeE-W1Me-KCOpipzaa-W1Me-T-Hgn-C-bA-dkAc-NH2] ({CH2CO}-[dA][NMe3Pal]NLK([CO-Piperazinyl(4-CH2COOH)])[NMeE][Trp(1-Me)]K([CO-Piperazinyl(4-CH2COOH)])[Trp(1-Me)]T[Aad](NH2)C[βAla][dK](Ac)-NH2; thioether N-12) | < 1
2 | CC(=O)NCCCC[C@@H](NC(=O)CCNC(=O)[C@@H]1CSCC(=O)N[C@@H](C)C(=O)N(C)[C@@H](Cc2cccnc2)C(=O)N[C@@H](CC(N)=O)C(=O)N[C@@H](CC(C)C)C(=O)N[C@@H](CCCC(=O)O)C(=O)N(C)[C@@H](Cc2ccccc2)C(=O)N[C@@H](Cc2cn(C)c3ccccc23)C(=O)N[C@@H](CCCCNC(=O)N2CCN(CC(=O)O)CC2)C(=O)N[C@@H](Cc2cn(C)c3ccccc23)C(=O)N[C@@H]([C@@H](C)O)C(=O)N[C@@H](CCC(=O)O)C(=O)N1)C(N)=O [PDC_EphA2-00008097, A-Me3Py-N-L-Hgl-MeF-W1Me-KCOpipzaa-W1Me-T-E-C-bA-dkAc-NH2] ({CH2CO}-A[NMe3Pal]NL[Aad][NMeF][Trp(1-Me)]K([CO-Piperazinyl(4-CH2COOH)])[Trp(1-Me)]TEC[βAla][dK](Ac)-NH2; thioether N-12) | 1 to 10
3 | CC(C)C[C@@H]1NC(=O)[C@H](CC(N)=O)NC(=O)[C@H](Cc2cccnc2)N(C)C(=O)[C@@H](C)NC(=O)CSC[C@@H](C(N)=O)NC(=O)[C@H](CCCC(N)=O)NC(=O)[C@H]([C@@H](C)O)NC(=O)[C@H](Cc2cn(C)c3ccccc23)NC(=O)[C@H](CCCCNC(=O)N2CCN(CC(=O)O)CC2)NC(=O)[C@H](Cc2cn(C)c3ccccc23)NC(=O)[C@H](Cc2ccccc2)N(C)C(=O)[C@H](CCCC(N)=O)NC1=O [PDC_EphA2-00009998, da-Me3Py-N-L-Hgn-MeF-W1Me-KCOpipzaa-W1Me-T-Hgn-C-NH2] ({CH2CO}-[dA][NMe3Pal]NL[Aad](NH2)[NMeF][Trp(1-Me)]K([CO-Piperazinyl(4-CH2COOH)])[Trp(1-Me)]T[Aad](NH2)C-NH2; thioether N-12) | < 1
4 | C[C@H]1NC(=O)CSC[C@@H](C(N)=O)NC(=O)[C@H](CCCC(N)=O)NC(=O)[C@H]([C@@H](C)O)NC(=O)[C@H](Cc2cn(C)c3ccccc23)NC(=O)[C@H](CCCCNC(=O)N2CCN(CC(=O)O)CC2)NC(=O)[C@H](Cc2cn(C)c3ccccc23)NC(=O)[C@H](Cc2ccccc2)N(C)C(=O)[C@H](CCCC(N)=O)NC(=O)[C@H](C2CCC2)NC(=O)[C@H](CC(N)=O)NC(=O)[C@H](Cc2cccnc2)N(C)C1=O [PDC_EphA2-00009999, da-Me3Py-N-Cbg-Hgn-MeF-W1Me-KCOpipzaa-W1Me-T-Hgn-C-NH2] ({CH2CO}-[dA][NMe3Pal]N[Gly(cBu)][Aad](NH2)[NMeF][Trp(1-Me)]K([CO-Piperazinyl(4-CH2COOH)])[Trp(1-Me)]T[Aad](NH2)C-NH2; thioether N-12) | < 1
5 | C[C@H]1NC(=O)CSC[C@@H](C(N)=O)NC(=O)[C@H](CCCC(N)=O)NC(=O)[C@H]([C@@H](C)O)NC(=O)[C@H](Cc2cn(C)c3ccccc23)NC(=O)[C@H](CCCCNC(=O)N2CCN(CC(=O)O)CC2)NC(=O)[C@H](Cc2cn(C)c3ccccc23)NC(=O)[C@H](CC(N)=O)NC(=O)[C@H](CCCC(N)=O)NC(=O)[C@H](C2CCC2)NC(=O)[C@H](CC(N)=O)NC(=O)[C@H](Cc2cccnc2)N(C)C1=O [PDC_EphA2-00010000, da-Me3Py-N-Cbg-Hgn-N-W1Me-KCOpipzaa-W1Me-T-Hgn-C-NH2] ({CH2CO}-[dA][NMe3Pal]N[Gly(cBu)][Aad](NH2)N[Trp(1-Me)]K([CO-Piperazinyl(4-CH2COOH)])[Trp(1-Me)]T[Aad](NH2)C-NH2; thioether N-12) | < 1
6 | C[C@H]1NC(=O)CSC[C@@H](C(N)=O)NC(=O)[C@H](CCCC(N)=O)NC(=O)[C@H]([C@@H](C)O)NC(=O)[C@H](Cc2cn(C)c3ccccc23)NC(=O)[C@H](CCCCNC(=O)N2CCN(CC(=O)O)CC2)NC(=O)[C@H](Cc2cn(C)c3ccccc23)NC(=O)[C@H](CC(N)=O)N(C)C(=O)[C@H](CCCC(N)=O)NC(=O)[C@H](C2CCC2)NC(=O)[C@H](CC(N)=O)NC(=O)[C@H](Cc2cccnc2)N(C)C1=O [PDC_EphA2-00010001, da-Me3Py-N-Cbg-Hgn-MeN-W1Me-KCOpipzaa-W1Me-T-Hgn-C-NH2] ({CH2CO}-[dA][NMe3Pal]N[Gly(cBu)][Aad](NH2)[NMeN][Trp(1-Me)]K([CO-Piperazinyl(4-CH2COOH)])[Trp(1-Me)]T[Aad](NH2)C-NH2; thioether N-12) | < 1
7 | C[C@H]1NC(=O)CSC[C@@H](C(N)=O)NC(=O)[C@H](CCCC(N)=O)NC(=O)[C@H]([C@@H](C)O)NC(=O)[C@H](Cc2cn(C)c3ccccc23)NC(=O)[C@H](CCCCNC(=O)N2CCN(CC(=O)O)CC2)NC(=O)[C@H](Cc2cn(C)c3ncccc23)NC(=O)[C@H](Cc2ccccc2)N(C)C(=O)[C@H](CCCC(N)=O)NC(=O)[C@H](C2CCC2)NC(=O)[C@H](CC(N)=O)NC(=O)[C@H](Cc2cccnc2)N(C)C1=O [PDC_EphA2-00010002, da-Me3Py-N-Cbg-Hgn-MeF-W1Me7N-KCOpipzaa-W1Me-T-Hgn-C-NH2] ({CH2CO}-[dA][NMe3Pal]N[Gly(cBu)][Aad](NH2)[NMeF][X6]K([CO-Piperazinyl(4-CH2COOH)])[Trp(1-Me)]T[Aad](NH2)C-NH2; thioether N-12) | < 1
8 | Cc1cccc(C[C@@H]2NC(=O)[C@H](CCCCNC(=O)N3CCN(CC(=O)O)CC3)NC(=O)[C@H](Cc3cn(C)c4ccccc34)NC(=O)[C@H](Cc3ccccc3)N(C)C(=O)[C@H](CCCC(N)=O)NC(=O)[C@H](C3CCC3)NC(=O)[C@H](CC(N)=O)NC(=O)[C@H](Cc3cccnc3)N(C)C(=O)[C@@H](C)NC(=O)CSC[C@@H](C(N)=O)NC(=O)[C@H](CCCC(N)=O)NC(=O)[C@H]([C@@H](C)O)NC2=O)c1C [PDC_EphA2-00010003, da-Me3Py-N-Cbg-Hgn-MeF-W1Me-KCOpipzaa-F23dMe-T-Hgn-C-NH2] ({CH2CO}-[dA][NMe3Pal]N[Gly(cBu)][Aad](NH2)[NMeF][Trp(1-Me)]K([CO-Piperazinyl(4-CH2COOH)])[X5]T[Aad](NH2)C-NH2; thioether N-12) | < 1
9 | C[C@H]1NC(=O)CSC[C@@H](C(N)=O)NC(=O)[C@H](CC(N)=O)NC(=O)[C@H]([C@@H](C)O)NC(=O)[C@H](Cc2cn(C)c3ccccc23)NC(=O)[C@H](CCCCNC(=O)N2CCN(CC(=O)O)CC2)NC(=O)[C@H](Cc2cn(C)c3ccccc23)NC(=O)[C@H](Cc2ccccc2)N(C)C(=O)[C@H](CCCC(N)=O)NC(=O)[C@H](C2CCC2)NC(=O)[C@H](CC(N)=O)NC(=O)[C@H](Cc2cccnc2)N(C)C1=O [PDC_EphA2-00010004, da-Me3Py-N-Cbg-Hgn-MeF-W1Me-KCOpipzaa-W1Me-T-N-C-NH2] ({CH2CO}-[dA][NMe3Pal]N[Gly(cBu)][Aad](NH2)[NMeF][Trp(1-Me)]K([CO-Piperazinyl(4-CH2COOH)])[Trp(1-Me)]TNC-NH2; thioether N-12) | < 1
